Test results published in ChEMBL document CHEMBL5360622, “Leucettinibs, a Class of DYRK/CLK Kinase Inhibitors Inspired by the Marine Sponge Natural Product Leucettamine B” (J Med Chem, 2023).

Legend:
[1] = target: Casein kinase I isoform epsilon (Homo sapiens, UniProt P49674)
[2] = target: Cyclin-dependent kinase 5/CDK5 activator 1 (Homo sapiens, UniProt Q00535); type: cell-based, Sf9
[3] = target: Dual specificity protein kinase CLK2 (Homo sapiens, UniProt P49760)
[4] = target: Dual specificity protein kinase CLK3 (Homo sapiens, UniProt P49761); type: cell-based, Sf9
Chain of Dual specificity protein kinase CLK3 (P49761 whole entry): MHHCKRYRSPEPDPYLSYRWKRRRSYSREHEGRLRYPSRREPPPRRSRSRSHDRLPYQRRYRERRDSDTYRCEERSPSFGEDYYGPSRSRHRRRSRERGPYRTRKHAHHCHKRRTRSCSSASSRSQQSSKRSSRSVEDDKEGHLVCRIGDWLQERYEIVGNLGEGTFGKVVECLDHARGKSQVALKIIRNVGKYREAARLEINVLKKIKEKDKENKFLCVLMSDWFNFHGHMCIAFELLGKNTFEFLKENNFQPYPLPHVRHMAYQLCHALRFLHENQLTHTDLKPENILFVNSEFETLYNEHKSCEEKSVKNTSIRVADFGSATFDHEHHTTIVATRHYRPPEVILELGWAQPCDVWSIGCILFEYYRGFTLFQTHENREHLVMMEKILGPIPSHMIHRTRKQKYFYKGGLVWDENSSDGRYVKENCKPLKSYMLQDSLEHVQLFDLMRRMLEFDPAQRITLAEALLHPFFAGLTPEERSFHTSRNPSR

[5] = target: T1, Dual specificity tyrosine-phosphorylation-regulated kinase 2 (Homo sapiens, UniProt Q92630)
T1 sequence (Q92630 whole entry): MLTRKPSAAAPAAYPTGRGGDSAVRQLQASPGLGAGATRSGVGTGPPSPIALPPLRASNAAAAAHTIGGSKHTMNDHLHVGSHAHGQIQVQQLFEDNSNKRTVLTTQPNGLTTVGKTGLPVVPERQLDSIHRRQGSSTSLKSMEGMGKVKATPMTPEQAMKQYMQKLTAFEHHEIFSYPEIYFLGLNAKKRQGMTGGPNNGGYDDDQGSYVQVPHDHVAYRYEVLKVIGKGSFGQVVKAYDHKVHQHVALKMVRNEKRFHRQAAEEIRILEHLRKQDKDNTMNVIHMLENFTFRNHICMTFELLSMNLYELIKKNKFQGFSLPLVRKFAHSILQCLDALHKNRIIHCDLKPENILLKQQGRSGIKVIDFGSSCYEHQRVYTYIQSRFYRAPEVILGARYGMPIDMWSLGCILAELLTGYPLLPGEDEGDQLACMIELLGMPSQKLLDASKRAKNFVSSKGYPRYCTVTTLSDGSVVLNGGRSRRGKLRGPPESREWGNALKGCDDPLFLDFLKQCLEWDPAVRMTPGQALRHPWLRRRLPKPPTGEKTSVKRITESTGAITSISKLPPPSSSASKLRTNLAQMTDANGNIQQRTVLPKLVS

[6] = target: T2, Dual specificity tyrosine-phosphorylation-regulated kinase 3 (Homo sapiens, UniProt O43781)
T2 sequence (O43781 whole entry): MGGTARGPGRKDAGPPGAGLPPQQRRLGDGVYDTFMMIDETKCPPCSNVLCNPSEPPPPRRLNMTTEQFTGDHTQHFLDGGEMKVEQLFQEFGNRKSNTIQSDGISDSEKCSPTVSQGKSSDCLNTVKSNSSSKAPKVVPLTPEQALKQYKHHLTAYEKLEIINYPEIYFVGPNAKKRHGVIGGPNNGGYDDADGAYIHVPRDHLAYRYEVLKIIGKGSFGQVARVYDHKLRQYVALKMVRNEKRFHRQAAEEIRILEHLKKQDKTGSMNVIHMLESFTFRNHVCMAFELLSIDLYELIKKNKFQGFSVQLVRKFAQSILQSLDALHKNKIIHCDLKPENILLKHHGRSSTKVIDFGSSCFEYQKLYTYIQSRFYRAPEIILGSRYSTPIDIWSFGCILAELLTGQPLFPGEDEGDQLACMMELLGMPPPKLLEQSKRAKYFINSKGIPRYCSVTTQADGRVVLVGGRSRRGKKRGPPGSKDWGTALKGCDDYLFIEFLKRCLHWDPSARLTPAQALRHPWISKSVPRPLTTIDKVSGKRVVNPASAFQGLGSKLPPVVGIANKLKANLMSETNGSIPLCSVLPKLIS

[7] = target: T3, Dual specificity tyrosine-phosphorylation-regulated kinase 4 (Homo sapiens, UniProt Q9NR20)
T3 sequence (Q9NR20 whole entry): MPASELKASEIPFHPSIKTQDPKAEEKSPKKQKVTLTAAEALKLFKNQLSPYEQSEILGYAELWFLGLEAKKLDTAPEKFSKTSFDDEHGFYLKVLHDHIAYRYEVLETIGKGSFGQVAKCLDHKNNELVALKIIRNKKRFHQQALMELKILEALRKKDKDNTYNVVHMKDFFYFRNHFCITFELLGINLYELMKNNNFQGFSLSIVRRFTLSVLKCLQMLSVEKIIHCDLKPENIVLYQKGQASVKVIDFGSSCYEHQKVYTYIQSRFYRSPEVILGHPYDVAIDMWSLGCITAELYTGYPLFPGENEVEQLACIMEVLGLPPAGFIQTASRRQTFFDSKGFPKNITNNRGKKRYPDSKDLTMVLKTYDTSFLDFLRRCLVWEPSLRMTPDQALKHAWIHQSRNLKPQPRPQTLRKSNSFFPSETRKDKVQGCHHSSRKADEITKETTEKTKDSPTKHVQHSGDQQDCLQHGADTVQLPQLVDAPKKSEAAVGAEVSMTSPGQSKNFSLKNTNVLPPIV

[8] = target: Glycogen synthase kinase-3 beta (Homo sapiens, UniProt P49841); type: cell-based, Sf9
Chain of Glycogen synthase kinase-3 beta (P49841 whole entry): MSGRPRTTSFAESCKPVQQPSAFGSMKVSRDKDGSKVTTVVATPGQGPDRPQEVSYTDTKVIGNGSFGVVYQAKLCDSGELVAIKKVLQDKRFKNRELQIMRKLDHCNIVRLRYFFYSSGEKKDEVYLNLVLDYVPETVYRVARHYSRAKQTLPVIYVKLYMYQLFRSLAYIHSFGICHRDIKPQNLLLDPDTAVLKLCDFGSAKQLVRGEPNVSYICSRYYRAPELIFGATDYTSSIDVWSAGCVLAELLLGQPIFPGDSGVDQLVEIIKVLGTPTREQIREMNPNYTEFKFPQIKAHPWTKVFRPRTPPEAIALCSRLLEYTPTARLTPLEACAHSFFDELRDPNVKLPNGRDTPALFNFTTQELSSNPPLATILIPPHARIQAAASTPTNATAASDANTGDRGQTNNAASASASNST

Chain of Dual specificity protein kinase CLK2 (P49760 whole entry): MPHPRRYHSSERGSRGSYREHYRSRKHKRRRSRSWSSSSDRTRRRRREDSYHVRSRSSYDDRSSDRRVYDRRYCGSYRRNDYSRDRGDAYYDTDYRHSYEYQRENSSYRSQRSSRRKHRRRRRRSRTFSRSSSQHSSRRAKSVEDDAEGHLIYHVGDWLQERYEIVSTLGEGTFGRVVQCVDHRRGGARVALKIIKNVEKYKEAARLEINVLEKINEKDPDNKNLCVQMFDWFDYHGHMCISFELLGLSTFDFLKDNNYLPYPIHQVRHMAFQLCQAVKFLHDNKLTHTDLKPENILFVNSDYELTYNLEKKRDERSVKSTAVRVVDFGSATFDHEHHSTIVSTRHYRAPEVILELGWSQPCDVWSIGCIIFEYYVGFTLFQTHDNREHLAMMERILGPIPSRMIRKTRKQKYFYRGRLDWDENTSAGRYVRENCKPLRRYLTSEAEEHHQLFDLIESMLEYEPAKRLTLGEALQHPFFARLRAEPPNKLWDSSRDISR
Chain of Cyclin-dependent kinase 5/CDK5 activator 1 (Q00535 whole entry): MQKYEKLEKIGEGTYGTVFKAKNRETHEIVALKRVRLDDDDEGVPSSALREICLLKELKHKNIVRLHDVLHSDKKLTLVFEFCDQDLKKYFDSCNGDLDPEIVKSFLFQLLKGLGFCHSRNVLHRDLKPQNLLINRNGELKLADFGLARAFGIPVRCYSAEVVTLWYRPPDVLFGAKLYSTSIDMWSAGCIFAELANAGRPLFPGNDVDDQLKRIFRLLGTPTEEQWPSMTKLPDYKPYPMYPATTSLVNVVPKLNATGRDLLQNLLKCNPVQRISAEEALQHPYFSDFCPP
Chain of Cyclin-dependent kinase 5/CDK5 activator 1 (Q15078 whole entry, further chain): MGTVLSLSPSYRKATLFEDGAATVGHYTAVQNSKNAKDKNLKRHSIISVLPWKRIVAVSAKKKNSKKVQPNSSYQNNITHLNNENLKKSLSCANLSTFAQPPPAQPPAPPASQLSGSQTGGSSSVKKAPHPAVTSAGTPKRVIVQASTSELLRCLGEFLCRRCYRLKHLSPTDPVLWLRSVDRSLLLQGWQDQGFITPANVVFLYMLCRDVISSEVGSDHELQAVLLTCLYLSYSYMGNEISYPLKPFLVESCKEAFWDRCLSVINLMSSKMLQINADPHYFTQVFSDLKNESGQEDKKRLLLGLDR
Chain of Casein kinase I isoform epsilon (P49674 whole entry, canonical isoform): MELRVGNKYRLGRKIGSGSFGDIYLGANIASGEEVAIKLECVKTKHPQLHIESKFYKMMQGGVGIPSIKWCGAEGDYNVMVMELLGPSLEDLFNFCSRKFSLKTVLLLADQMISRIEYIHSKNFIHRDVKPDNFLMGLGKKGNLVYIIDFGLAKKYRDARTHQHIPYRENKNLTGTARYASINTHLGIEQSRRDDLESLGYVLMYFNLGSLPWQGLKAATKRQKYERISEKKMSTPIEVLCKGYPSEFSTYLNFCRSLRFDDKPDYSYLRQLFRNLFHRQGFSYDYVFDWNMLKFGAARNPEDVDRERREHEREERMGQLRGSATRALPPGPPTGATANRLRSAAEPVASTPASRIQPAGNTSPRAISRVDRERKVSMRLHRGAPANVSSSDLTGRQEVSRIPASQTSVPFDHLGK

| SMILES | IC50 [1] | IC50 [2] | IC50 [3] | IC50 [4] | IC50 [5] | IC50 [6] | IC50 [7] | IC50 [8] |
| --- | --- | --- | --- | --- | --- | --- | --- | --- |
| O=C1NC(NC2CCCC(F)(F)C2)=N/C1=C\c1ccc2ncsc2c1 (racemic) | 8460 nM | 2380 nM | 24 nM | 175 nM | 391 nM | 296 nM | 321 nM | 5690 nM |
| CO[C@@H]1CCCC[C@H]1NC1=N/C(=C\c2ccc3ncsc3c2)C(=O)N1 |  | > 10000 nM | 310 nM | 382 nM | 342 nM | 1360 nM | 551 nM | > 10000 nM |
| O=C1NC(NCC(O)C2CCCCC2)=N/C1=C\c1ccc2ncsc2c1 (racemic) | 6930 nM | > 10000 nM | 46 nM | 299 nM | 1090 nM | 357 nM | 319 nM | 3080 nM |
| O=C1NC(Nc2cccc(OC(F)F)c2)=N/C1=C\c1ccc2ncsc2c1 |  | > 10000 nM | 134 nM | 710 nM | 760 nM | 706 nM | 2730 nM | 3680 nM |
| O=C1NC(NC(CO)C2CCCCC2)=N/C1=C\c1ccc2ncsc2c1 (racemic) | > 10000 nM | > 10000 nM | 80 nM | 1090 nM | 1380 nM | 695 nM | 410 nM | 4160 nM |
| O=C1NC(NC2CC23CCCCC3)=N/C1=C\c1ccc2ncsc2c1 (configuration not stated) | > 10000 nM | > 10000 nM |  | 341 nM | 355 nM | 343 nM | 938 nM | 854 nM |
| O=C1NC(NC(CF)c2ccccc2)=N/C1=C\c1ccc2ncsc2c1 (racemic) | > 10000 nM | > 10000 nM | 13 nM | 293 nM | 530 nM | 477 nM | 459 nM | 947 nM |
| Cc1ccc(CNC2=N/C(=C\c3ccc4ncsc4c3)C(=O)N2)c(C)c1 | > 10000 nM | > 10000 nM |  | 518 nM |  | 4200 nM | 9220 nM | > 10000 nM |
| O=C1NC(NCc2ccncc2)=N/C1=C\c1ccc2ncsc2c1 | > 10000 nM | > 10000 nM | 109 nM | 1230 nM | 613 nM | 1030 nM | 1240 nM | 3260 nM |
| CC1(NC2=N/C(=C\c3ccc4ncsc4c3)C(=O)N2)CCNC1=O (racemic) | > 10000 nM | > 10000 nM | 56 nM | 532 nM | 189 nM | 592 nM | 591 nM | 6280 nM |
| Cc1csc(CNC2=N/C(=C\c3ccc4ncsc4c3)C(=O)N2)n1 | > 10000 nM | > 10000 nM | 33 nM | 376 nM |  | 1800 nM | 954 nM | 2150 nM |
| C[C@@H]1[C@H]2C[C@@H](C[C@H]1NC1=N/C(=C\c3ccc4ncsc4c3)C(=O)N1)C2(C)C | > 10000 nM | > 10000 nM |  | 795 nM |  | 1010 nM | 719 nM | > 10000 nM |
| O=C1NC(N[C@@H]2CCCOC2)=N/C1=C\c1ccc2ncsc2c1 | > 10000 nM | > 10000 nM | 236 nM | 604 nM | 1180 nM | 1640 nM | 1850 nM | 9200 nM |
| O=C1NC(NCc2ccccc2C(F)(F)F)=N/C1=C\c1ccc2ncsc2c1 | > 10000 nM | > 10000 nM | 15 nM | 135 nM |  | 434 nM | 2550 nM | 6920 nM |
| O=C1NC(NC2CC3CCC2C3)=N/C1=C\c1ccc2ncsc2c1 (racemic) | > 10000 nM | > 10000 nM | 127 nM | 143 nM | 240 nM | 337 nM | 260 nM | 3260 nM |
| O=C1NC(NCC(O)Cc2ccccc2)=N/C1=C\c1ccc2ncsc2c1 (racemic) | > 10000 nM | > 10000 nM | 89 nM | 472 nM | 527 nM | 1170 nM | 288 nM | 4810 nM |
| O=C1NC(N[C@@H]2CCCC[C@@H](O)C2)=N/C1=C\c1ccc2ncsc2c1 (racemic) |  | > 10000 nM |  | 309 nM | 258 nM | 706 nM | 1250 nM | 4370 nM |
| O=C1NC(N[C@H]2CCCOC2)=N/C1=C\c1ccc2ncsc2c1 | > 10000 nM | 5900 nM | 162 nM | 119 nM | 109 nM | 611 nM | 570 nM | > 10000 nM |
| O=C1NC(N[C@@H]2CCCC[C@H](O)C2)=N/C1=C\c1ccc2ncsc2c1 (racemic) |  | > 10000 nM |  | 646 nM | 174 nM | 753 nM | 698 nM | 6040 nM |
| CC(C)(C)OC(=O)N1CCC(CNC2=N/C(=C\c3ccc4ncsc4c3)C(=O)N2)CC1 | > 10000 nM | > 10000 nM | 2200 nM | 8620 nM |  | > 10000 nM | > 10000 nM | 5270 nM |
| O=C1NC(N[C@H]2C3CC4CC2C[C@](O)(C4)C3)=N/C1=C\c1ccc2ncsc2c1 | 9800 nM | 2300 nM | 11 nM | 626 nM | 296 nM | 122 nM | 321 nM | 5370 nM |
| O=C1NC(NC2CCCCC2(F)F)=N/C1=C\c1ccc2ncsc2c1 (racemic) | > 10000 nM | > 10000 nM | 28 nM | 127 nM |  | 119 nM | 143 nM | 5560 nM |
| COC(CNC1=N/C(=C\c2ccc3ncsc3c2)C(=O)N1)c1ccccc1 (racemic) | > 10000 nM | > 10000 nM | 148 nM | 270 nM | 352 nM | 1510 nM | 1560 nM | 4310 nM |
| O=C1NC(N[C@@H](CO)CC2CCC2)=N/C1=C\c1ccc2ncsc2c1 | > 10000 nM | > 10000 nM |  | 720 nM | 1910 nM | 1250 nM | 1670 nM | 2410 nM |
| CO[C@H]1CCCC[C@H]1NC1=N/C(=C\c2ccc3ncsc3c2)C(=O)N1 (racemic) |  | > 10000 nM | 648 nM | 1130 nM | 1570 nM | 1060 nM | 731 nM | 9540 nM |
| O=C1NC(Nc2ccccn2)=N/C1=C\c1ccc2ncsc2c1 | > 10000 nM | > 10000 nM | 117 nM | 211 nM | 256 nM | 350 nM |  | 1660 nM |
| CO[C@H]1CCCC[C@@H]1NC1=N/C(=C\c2ccc3ncsc3c2)C(=O)N1 |  | > 10000 nM | 100 nM | 628 nM | 777 nM | 1200 nM | 439 nM | 8750 nM |
